Test in all cases: relative viability (nuclei count vs DMSO), 5 days (fraction); higher = more cells survive
Compound in assay [1]: C1CNCCC1C2=CC(=NN2)C3=CC=NC=C3 + Cc1cc(Nc2cc(N3CCN(C)CC3)nc(Sc3ccc(NC(=O)C4CC4)cc3)n2)n[nH]1 [Tozasertib] (partner 0.1 µM)
Summed up: (§1)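 One day after seeding in 1536-well plates, lung cancer cell lines were dosed by pin tool. Dosing was either single-drug or a fixed anchor-drug dose plus five library-drug doses (not always all listed) in √10 steps. After 5 days, nuclei were stained in one fix-and-stain step and counted on 4× images, and relative viability is the nuclei count of treated wells over that of vehicle wells, given as the median of duplicate plates.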

Compound in assay [2]: C[C@@H](N)c1ccc(C(=O)Nc2ccnc3[nH]ccc23)cc1 + CC(=O)Nc1cccc(-n2c(=O)n(C3CC3)c(=O)c3c(Nc4ccc(I)cc4F)n(C)c(=O)c(C)c32)c1 [Trametinib] (partner 0.02 µM)
Summed up:
as §1

Compound in assay [3]: C[C@@H](N)c1ccc(C(=O)Nc2ccnc3[nH]ccc23)cc1 + Nc1nc2[nH]cc(CCc3ccc(C(=O)N[C@@H](CCC(=O)O)C(=O)O)cc3)c2c(=O)[nH]1 [Pemetrexed] (partner 0.2 µM)
Summed up:
as §1

Compound in the assay “Tanzisertib + Dasatinib”: O[C@H]1CC[C@H](Nc2ncc3nc(Nc4c(F)cc(F)cc4F)n([C@H]4CCOC4)c3n2)CC1 [Tanzisertib] + Cc1nc(Nc2ncc(C(=O)Nc3c(C)cccc3Cl)s2)cc(N2CCN(CCO)CC2)n1 [Dasatinib] (partner 0.075 µM)
Summed up:
as §1

Experimental findings from the supplement of paper PMC10307832 are described below.

Consider NCI-H1915, for which the relative viability in assay [1] (first compound 0.08 µM) was 0.475; in assay [1] (first compound 0.8 µM), 0.435; in assay [1] (first compound 2.53 µM) it was 0.451; in assay [1] (first compound 8 µM), 0.438; in assay [2] (first compound 0.1265 µM) it was 0.299; in assay [2] (first compound 0.4 µM), 0.298. Besides, the relative viability in assay [2] (first compound 4 µM) worked out at 0.239; in assay [3] (first compound 0.1265 µM), 0.501; in assay [3] (first compound 0.4 µM), 0.541; in assay [3] (first compound 4 µM), 0.449; with Tanzisertib + Dasatinib (first compound 0.08 µM) it was 0.319; with Tanzisertib + Dasatinib (first compound 0.253 µM) it was 0.316. Also, the values for the relative viability in the assay with Tanzisertib + Dasatinib (first compound 0.8 µM), with Tanzisertib + Dasatinib (first compound 2.53 µM) and with Tanzisertib + Dasatinib (first compound 8 µM) were 0.321, 0.301 and 0.283, respectively.
Regarding NCI-H1944, the relative viability worked out at 0.243 in assay [1] (first compound 0.08 µM); 0.264 in assay [1] (first compound 0.8 µM); 0.263 in assay [1] (first compound 2.53 µM); 0.256 in assay [1] (first compound 8 µM); 0.479 in assay [2] (first compound 0.04 µM); 0.412 in assay [2] (first compound 0.1265 µM). Besides, the relative viability was 0.467 in assay [2] (first compound 0.4 µM); 0.503 in assay [2] (first compound 1.265 µM); 0.402 in assay [2] (first compound 4 µM); 0.594 in assay [3] (first compound 0.04 µM); 0.605 in assay [3] (first compound 0.1265 µM); 0.73 in assay [3] (first compound 0.4 µM). Further, the relative viability was determined as 0.596 in assay [3] (first compound 1.265 µM); 0.611 in assay [3] (first compound 4 µM); 0.254 with Tanzisertib + Dasatinib (first compound 0.08 µM); 0.23 with Tanzisertib + Dasatinib (first compound 0.253 µM); 0.234 in the assay with Tanzisertib + Dasatinib (first compound 0.8 µM); 0.196 with Tanzisertib + Dasatinib (first compound 2.53 µM). Besides, the relative viability in the assay with Tanzisertib + Dasatinib (first compound 8 µM) was found to be 0.22.
Take NCI-H1975: the relative viability in assay [1] (first compound 0.08 µM) came to 0.885; in assay [1] (first compound 0.8 µM), 0.759; in assay [1] (first compound 2.53 µM), 0.725; in assay [1] (first compound 8 µM), 0.724; in assay [2] (first compound 0.04 µM), 0.286; in assay [2] (first compound 0.1265 µM), 0.4. Moreover, the relative viability in assay [2] (first compound 0.4 µM) was determined as 0.449; in assay [2] (first compound 1.265 µM), 0.194; in assay [2] (first compound 4 µM) it was 0.233; in assay [3] (first compound 0.04 µM) it was 0.313; in assay [3] (first compound 0.1265 µM), 0.31; in assay [3] (first compound 0.4 µM), 0.265. Further, the relative viability worked out at 0.228 in assay [3] (first compound 1.265 µM); 0.211 in assay [3] (first compound 4 µM); 0.421 with Tanzisertib + Dasatinib (first compound 0.08 µM); 0.446 with Tanzisertib + Dasatinib (first compound 0.253 µM); 0.365 in the assay with Tanzisertib + Dasatinib (first compound 0.8 µM); 0.356 with Tanzisertib + Dasatinib (first compound 2.53 µM). Further, the relative viability in the assay with Tanzisertib + Dasatinib (first compound 8 µM) was 0.329.
As to NCI-H1993, the relative viability in assay [1] (first compound 0.08 µM) is 0.586; in assay [1] (first compound 0.8 µM), 0.618; in assay [1] (first compound 2.53 µM) it was 0.564; in assay [1] (first compound 8 µM), 0.653; in assay [2] (first compound 0.04 µM) it was 0.607; in assay [2] (first compound 0.1265 µM), 0.519. In addition, the relative viability in assay [2] (first compound 1.265 µM) turned out to be 0.569; in assay [2] (first compound 4 µM), 0.511; in assay [3] (first compound 0.04 µM), 0.652; in assay [3] (first compound 0.1265 µM), 0.653; in assay [3] (first compound 1.265 µM), 0.632; in assay [3] (first compound 4 µM) it was 0.642. In addition, the relative viability with Tanzisertib + Dasatinib (first compound 0.08 µM) was determined as 0.631; with Tanzisertib + Dasatinib (first compound 0.253 µM), 0.656; with Tanzisertib + Dasatinib (first compound 0.8 µM) it was 0.709; with Tanzisertib + Dasatinib (first compound 2.53 µM), 0.526; with Tanzisertib + Dasatinib (first compound 8 µM) it was 0.479.
On to NCI-H2009, for which the relative viability came out at 0.713 in assay [1] (first compound 0.08 µM); 0.74 in assay [1] (first compound 0.8 µM); 0.689 in assay [1] (first compound 2.53 µM); 0.696 in assay [1] (first compound 8 µM); 0.219 in assay [2] (first compound 0.04 µM); 0.268 in assay [2] (first compound 0.1265 µM). Besides, the relative viability in assay [2] (first compound 0.4 µM) was determined as 0.236; in assay [2] (first compound 1.265 µM) it was 0.21; in assay [2] (first compound 4 µM), 0.214; in assay [3] (first compound 0.04 µM), 0.984; in assay [3] (first compound 0.1265 µM), 0.975; in assay [3] (first compound 0.4 µM), 0.943. For the same cell line, the relative viability in assay [3] (first compound 1.265 µM) is 0.866; in assay [3] (first compound 4 µM), 0.765; with Tanzisertib + Dasatinib (first compound 0.08 µM), 0.324; with Tanzisertib + Dasatinib (first compound 0.253 µM) it was 0.318; with Tanzisertib + Dasatinib (first compound 0.8 µM), 0.296; with Tanzisertib + Dasatinib (first compound 2.53 µM), 0.308. For the same cell line, the relative viability with Tanzisertib + Dasatinib (first compound 8 µM) is 0.24.
Consider NCI-H2023, for which the relative viability in assay [1] (first compound 0.08 µM) was found to be 0.351; in assay [1] (first compound 0.8 µM) it was 0.3; in assay [1] (first compound 2.53 µM) it was 0.482; in assay [1] (first compound 8 µM), 0.256; in assay [2] (first compound 0.04 µM), 0.607; in assay [2] (first compound 0.1265 µM) it was 0.619. For the same cell line, the relative viability is 0.657 in assay [2] (first compound 0.4 µM); 0.586 in assay [2] (first compound 4 µM); 0.226 in assay [3] (first compound 0.04 µM); 0.262 in assay [3] (first compound 0.1265 µM); 0.211 in assay [3] (first compound 0.4 µM); 0.245 in assay [3] (first compound 4 µM). Besides, the relative viability with Tanzisertib + Dasatinib (first compound 0.08 µM) came to 0.677; with Tanzisertib + Dasatinib (first compound 0.253 µM) it was 0.616; in the assay with Tanzisertib + Dasatinib (first compound 0.8 µM), 0.536; with Tanzisertib + Dasatinib (first compound 2.53 µM) it was 0.606; with Tanzisertib + Dasatinib (first compound 8 µM), 0.497.
